Assays:
Type in all cases: functional
Rattus norvegicus [1] = assay: Elimination of D-xylose from 15 days old Sprague-Dawley suckling rat urine at 4 mg, po
Rattus norvegicus [2] = assay: Elimination of D-xylose from 30 days old Sprague-Dawley suckling rat urine at 4 mg, po
Rattus norvegicus [3] = assay: Elimination of D-xylose from 18 days old Sprague-Dawley suckling rat urine at 4 mg, po

| Compound | Activity (Rattus norvegicus [1]) [%] | Activity (Rattus norvegicus [2]) [%] | Activity (Rattus norvegicus [3]) [%] |
| --- | --- | --- | --- |
| OC[C@H]1O[C@@H](O[C@H]2C(O)OC[C@@H](O)[C@@H]2O)[C@H](O)[C@@H](O)[C@H]1O (some centres undefined) | 23.1 | 9.43 | 20.71 |
| OC[C@H]1O[C@@H](O[C@@H]2COC(O)[C@H](O)[C@H]2O)[C@H](O)[C@@H](O)[C@H]1O (some centres undefined) | 23.66 | 3.05 | 6.99 |
| OC[C@H]1O[C@@H](O[C@H]2[C@H](O)COC(O)[C@@H]2O)[C@H](O)[C@@H](O)[C@H]1O (some centres undefined) | 23.3 | 19.39 | 20.63 |

Reference: ChEMBL document CHEMBL1149587 (2007)
